Measurements taken from patent publication US20160130554A1, “Reprogramming Mesenchymal Stromal Cells Into Hematopoietic Cells” (Wake Forest University Health Sciences, priority 2014, published 2016).

Experiments:
SIPs [1] = assay: In vitro reprogramming of SIPs, flow cytometry for hematopoietic surface markers; format: cell-based, human; details: the two small molecules alone, without RUNX1C
Source text: Heparinized human BM was obtained from healthy donors after informed consent, according to guidelines from the Office of Human Research Protection at the University of Nevada at Reno, Wake Forest Health Sciences, or from commercially available sources (AllCells, LLC, Alameda Calif.). Low density BM mononuclear cells (BMNC) were separated by Ficoll density gradient (1.077 g/ml Sigma, St. Louis, Mo.) and washed twice in Iscove's modified Dulbecco's medium (Invitrogen, Carlsbad, Calif.). Stro-1+ MSC were then isolated using anti-Stro-1 antibody (R&D Systems, Minneapolis, Minn.) and magnetic bead cell sorting (Miltenyi Biotec, Inc., Auburn, Calif.) according to manufacturer's guidelines. Stro-1+ cells were then cultured at low density in 0.02% gelatin (Sigma, St Louis, Mo.) coated flasks using Mesenchymal Stem Cell Growth Medium (MSCGM™, Lonza, Walkersville, Md.) in a humidified 37° C. incubator at 5% CO2.
BM-MSC were transduced on 6-well plates with Oct4- or RUNX1C-encoding lentiviral vector, alone or in combination (or an eGFP-encoding lentiviral vector as a control), at a multiplicity of infection (MOI) of 50 for each vector. Twenty four hours after transduction, the vector-containing media was removed and replaced with fresh MSCGM™ (Lonza). […]

SIPs [2] = assay: Culture conditions for reprogramming of SIPs (data not shown); format: cell-based, human; details: the two factors alone, preliminary studies
Source text: Cultures may be performed in defined serum-free media. This will to facilitate clinical grade production of hematopoietic cells. SIPS ([…]) may be plated in 100 mm gelatin-coated culture plates using serum-free TheraPEAK® MSCGM-CD Mesenchymal Stem Cell Medium (Lonza). Sixteen hours later they may be transduced overnight with the lentivector encoding RUNX1c at an MOI of ˜10. A control group may be transduced with an identical lentivector expressing EGFP to judge transduction efficiency (usually ˜80-90%) and to assess the precision of the cumate “switch”. The following day, the medium may be changed to DMEM/F12/+20% KOSR/1×NEAA/0.1 mM 2-ME/containing rhFGF2 (20 ng/ml) and rhIGFII (30 ng/ml). […] At the same time, media may be supplemented with cumate to turn on expression of RUNX1c (or EGFP) and with VPA (1 mM final concentration) and Bix-01294 (2 μM final concentration).
In order to facilitate differentiation of the HSC into all lineages or into hematopoietic cells having good engraftment potential, additional growth factors, such as TPO and BMP4, may be incorporated into the culture medium. […]

| Molecule | expression of CD41 or CD34 (SIPs [1]) | reprogramming of SIPs to the hematopoietic lineage (SIPs [2]) |
| --- | --- | --- |
| COc1cc2nc(N3CCCN(C)CC3)nc(NC3CCN(Cc4ccccc4)CC3)c2cc1OC [Bix-01294] | did not induce significant expression | – |
| CCCC(CCC)C(=O)O [VPA, valproic acid] | did not induce significant expression | – |
| rhFGF2: recombinant human FGF2 medium supplement | – | some ability to support some degree of reprogramming |
| rhIGFII: recombinant human IGF-II medium supplement | – | some ability to support some degree of reprogramming |
